Data set [1] has as its system Human immunodeficiency virus 2. As to the kind of experiment: Antiviral activity against HIV2 ROD infected in human CEM cells assessed as reduction in virus-induced cytopathicity after 4 to 5 days by microscopy based syncytium cell formation assay. The format is functional, organism-based, ISOLATE ROD, CCRF-CEM. Particulars: Human immunodeficiency virus 2, ISOLATE ROD, CCRF-CEM; read-out: EC50. (Cytopathic effects are the visible damage that an infection or toxin causes in cultured cells.)

In a further data set the test system is Vaccinia virus. Put plainly: Antiviral activity against vaccinia virus. The format is functional, organism-based. Particulars: Orthopoxvirus vaccinia.
A further data set concerns Felid alphaherpesvirus 1. As to the kind of experiment: Antiviral activity against feline herpesvirus. The format is functional, organism-based.
Another data set deals with Punta Toro virus. Put plainly: Antiviral activity against punta toro virus. The format is functional, organism-based.
For another data set, the system named is Influenza A virus H3N2. As to the kind of experiment: Antiviral activity against influenza A virus H3N2. The format is functional, organism-based.
For data set [2], the system named is Human immunodeficiency virus 1. As to the kind of experiment: Antiviral activity against HIV1 3B infected in human CEM cells assessed as reduction in virus-induced cytopathicity after 4 to 5 days by microscopy based syncytium cell formation assay. Particulars: Human immunodeficiency virus 1, 3B, CCRF-CEM; read-out: EC50. The format is functional, organism-based, CCRF-CEM.

In the next data set the test system is Influenza A virus. As to the kind of experiment: Antiviral activity against influenza A virus (H1N1). The format is functional, organism-based.
The next data set deals with Reovirus sp. As to the kind of experiment: Antiviral activity against reovirus. The format is functional, organism-based.
Data set [3] relates to Vesicular stomatitis virus. As to the kind of experiment: Antiviral activity against vesicular stomatitis virus. The format is functional, organism-based.
A further data set relates to Chikungunya virus. Put plainly: Antiviral activity against chikungunya virus. The format is functional.
Another data set concerns Human respirovirus 3. Put plainly: Antiviral activity against human parainfluenza virus 3. The format is functional, organism-based.
Data set [4] can be described thus: Cytotoxicity against human CEM cells assessed as inhibition of cell proliferation. The format is cell-based. The following applies: CEM cells (CCRF-CEM).
For the next data set, the system named is Coxsackievirus B4. As to the kind of experiment: Antiviral activity against human coxsackievirus B4. The format is functional, organism-based.
Data set [5] can be described thus: Selectivity index, ratio of CC50 for human CEM cells to EC50 for HIV1 3B. The format is toxicity, cell-based, CCRF-CEM. The following applies: read-out: Ratio CC50/EC50.
Data set [6] relates to Respiratory syncytial virus. Put plainly: Antiviral activity against RSV. The format is functional, organism-based.
Data set [7] is described as follows: Cytotoxicity against human Huh5-2 cells after 72 hrs by MTS assay. The format is cell-based, Huh-5-2. (In general: Tetrazolium assays rely on reduction of a dye to a coloured formazan, in cell work by metabolically active cells.)
The next data set relates to Sindbis virus. Put plainly: Antiviral activity against sindbis virus. The format is functional, organism-based.
For the next data set, the system named is Feline coronavirus. As to the kind of experiment: Antiviral activity against feline coronavirus. The format is functional, organism-based.
In the next data set the test system is Hepatitis C virus. As to the kind of experiment: Antiviral activity against HCV genotype 1b I389luc-ubi-neo/NS3-3'/5.1 replicons infected in human Huh5-2 HCV subgenomic replicon-containing cells assessed as reduction in virus replication after 3 days by luciferase reporter gene assay. The format is functional, Hepacivirus hominis. Particulars: Hepatitis C virus, genotype 1b, Huh-5-2, 72 h; for EC50: read-out: EC50. (In antiviral work, replicon cells carry a viral genome segment that copies itself.)

Calls of active or inactive are those of the source. The rule behind the calls is not given here.

As a reminder, the EC50 is the concentration that produces a half-maximal response. In general, CC50 refers to the concentration at which the toxic effect on the cells reaches its halfway point. The term EC90 denotes the point of the concentration-response curve where the effect stands at 90%. `O=C(NCCN(CCNC(=O)c1ccc(O)c(O)c1O)CCNC(=O)c1ccc(O)c(O)c1O)c1ccc(O)c(O)c1O`: the EC50 in data set [1] was greater than 10 µM; in [2] it was 2.5 µM; in the data set with Hepatitis C virus, greater than 5.5 µM. For the same molecule, the result with Vaccinia virus, in the data set with Felid alphaherpesvirus 1, in the data set on Punta Toro virus, in the data set with Influenza A virus H3N2, in the data set with Influenza A virus and in the data set on Reovirus sp. was inactive. Besides, the result (in [3]; with Chikungunya virus; in the data set with Human respirovirus 3; with Coxsackievirus B4; in data set [6]; in the data set with Sindbis virus) was inactive. In addition, the result in the data set with Feline coronavirus was inactive. In addition, the cytotoxic concentration (CC50) in data set [4] was 28 µM. Besides, the selectivity ratio in [5] was found to be 10. This molecule registered a 50% cytotoxic concentration (CC50) at 72 h in data set [7] greater than 3.7 µM. The EC90 in the data set on Hepatitis C virus is greater than 5.5 µM.

With `O=C(NCCCCN(CCCNC(=O)c1cc(O)c(O)c(O)c1)C(=O)c1cc(O)c(O)c(O)c1)c1cc(O)c(O)c(O)c1`, the result in the data set on Vaccinia virus, in the data set with Felid alphaherpesvirus 1, in the data set with Punta Toro virus, in the data set with Influenza A virus H3N2, in the data set on Influenza A virus and in the data set on Reovirus sp. was inactive. Further, the result (in data set [3]; in the data set with Chikungunya virus; in the data set with Human respirovirus 3; in the data set on Coxsackievirus B4; in data set [6]; in the data set with Sindbis virus) was inactive. Besides, the result in the data set with Feline coronavirus was inactive. In addition, in data set [2], the EC50 was 18 µM. Besides, the CC50 in data set [4] came to 107 µM. Further, the selectivity ratio in [5] is 6.

With `O=C(NCCN(CCN(CCN(CCNC(=O)c1cc(O)c(O)c(O)c1)C(=O)c1cc(O)c(O)c(O)c1)C(=O)c1cc(O)c(O)c(O)c1)C(=O)c1cc(O)c(O)c(O)c1)c1cc(O)c(O)c(O)c1`, the concentration giving a half-maximal response (EC50) in [1] was greater than 10 µM; in [2], 4.9 µM; in the data set with Hepatitis C virus, 34 µM. Also, the result with Vaccinia virus, in the data set on Felid alphaherpesvirus 1, in the data set on Punta Toro virus, with Influenza A virus H3N2, in the data set on Influenza A virus and with Reovirus sp. was inactive. The outcome (in data set [3]; with Chikungunya virus; in the data set with Human respirovirus 3; in the data set on Coxsackievirus B4; in [6]; in the data set with Sindbis virus) was inactive. Further, the outcome with Feline coronavirus was inactive. In addition, in [4], the CC50 is 21 µM. The selectivity ratio in [5] amounted to 4. Further, in data set [7], the half-maximal cytotoxic concentration (CC50) at 72 h was greater than 50 µM. Moreover, the EC90 with Hepatitis C virus was greater than 50 µM.

Turning to `CCCCCCOC(=O)c1cc(O)c(O)c(O)c1` [HEXYL GALLATE], the results for the concentration giving a half-maximal response (EC50) (in [1]; in [2]; in the data set on Hepatitis C virus) were 6.6 µM, 5.4 µM and 9 µM, respectively. Further, the result in the data set with Vaccinia virus, with Felid alphaherpesvirus 1, in the data set on Punta Toro virus, in the data set with Influenza A virus H3N2, with Influenza A virus and with Reovirus sp. was inactive. Further, the outcome (in [3]; with Chikungunya virus; in the data set on Human respirovirus 3; in the data set on Coxsackievirus B4; in data set [6]; with Sindbis virus) was inactive. For the same molecule, in the data set with Feline coronavirus, the result was inactive. In addition, the CC50 in [4] came to 14 µM. Moreover, the CC50 at 72 h in [7] is greater than 50 µM. For the same molecule, the 90% effect concentration (EC90) in the data set with Hepatitis C virus is greater than 50 µM.

Regarding `O=C(NCCCCCCNC(=O)c1ccc(O)c(O)c1O)c1ccc(O)c(O)c1O`, the values for the 50% effective concentration (EC50) (in data set [1]; in [2]; in the data set with Hepatitis C virus) were greater than 50 µM, greater than 50 µM and 14 µM, respectively. The outcome in the data set with Vaccinia virus, with Felid alphaherpesvirus 1, with Punta Toro virus, in the data set on Influenza A virus H3N2, in the data set with Influenza A virus and in the data set on Reovirus sp. was inactive. In addition, the outcome (in [3]; with Chikungunya virus; in the data set on Human respirovirus 3; in the data set with Coxsackievirus B4; in data set [6]; in the data set with Sindbis virus) was inactive. In addition, in the data set with Feline coronavirus, the outcome was inactive. Moreover, the CC50 in data set [4] amounted to 102 µM. The same molecule showed a CC50 at 72 h in data set [7] of 32 µM.

On to `O=C(OCCCCCCCCOC(=O)c1cc(O)c(O)c(O)c1)c1cc(O)c(O)c(O)c1`, for which the 50% effective concentration (EC50) is greater than 10 µM in [1], greater than 10 µM in [2] and 17 µM in the data set with Hepatitis C virus. Further, the outcome in the data set on Vaccinia virus, with Felid alphaherpesvirus 1, in the data set on Punta Toro virus, in the data set with Influenza A virus H3N2, with Influenza A virus and in the data set with Reovirus sp. was inactive. In addition, the result (in [3]; in the data set on Chikungunya virus; in the data set with Human respirovirus 3; in the data set on Coxsackievirus B4; in [6]; in the data set with Sindbis virus) was inactive. Besides, in the data set on Feline coronavirus, the outcome was inactive. Besides, the CC50 in [4] was found to be 13 µM. Further, the CC50 at 72 h in [7] was found to be 80 µM. Moreover, the 90% effect concentration (EC90) with Hepatitis C virus worked out at 55 µM.

As for `O=C(NCCCCN(CCCNC(=O)c1ccc(O)c(O)c1O)C(=O)c1ccc(O)c(O)c1O)c1ccc(O)c(O)c1O`, the figures for the EC50 (in data set [1]; in [2]; in the data set on Hepatitis C virus) were greater than 10 µM, 2.6 µM and 34 µM, respectively. The result in the data set with Vaccinia virus, with Felid alphaherpesvirus 1, in the data set with Punta Toro virus, with Influenza A virus H3N2, in the data set with Influenza A virus and in the data set on Reovirus sp. was inactive. For the same molecule, the result (in [3]; with Chikungunya virus; in the data set with Human respirovirus 3; in the data set with Coxsackievirus B4; in data set [6]; with Sindbis virus) was inactive. In addition, the outcome in the data set on Feline coronavirus was inactive. Also, in data set [4], the CC50 is 27 µM. Besides, in [5], the selectivity ratio is 10. The molecule further came in with a half-maximal cytotoxic concentration (CC50) at 72 h in [7] greater than 50 µM. Further, the EC90 with Hepatitis C virus is greater than 50 µM.

For `O=C(NCCCCCCCCCCNC(=O)c1ccc(O)c(O)c1O)c1ccc(O)c(O)c1O`, the EC50 in data set [1] is greater than 50 µM; in [2], greater than 50 µM; in the data set with Hepatitis C virus, 11 µM. Besides, the outcome with Vaccinia virus, in the data set with Felid alphaherpesvirus 1, with Punta Toro virus, in the data set with Influenza A virus H3N2, in the data set with Influenza A virus and with Reovirus sp. was inactive. Besides, the outcome (in data set [3]; in the data set on Chikungunya virus; with Human respirovirus 3; in the data set on Coxsackievirus B4; in data set [6]; in the data set on Sindbis virus) was inactive. The result in the data set on Feline coronavirus was inactive. Besides, in data set [4], the CC50 was 100 µM. Moreover, the CC50 at 72 h in data set [7] is greater than 100 µM.

As for `O=C(NCCCCNC(=O)c1cc(O)c(O)c(O)c1)c1cc(O)c(O)c(O)c1`, the concentration for a half-maximal effect (EC50) in data set [1] is greater than 10 µM; in data set [2], 5.2 µM; in the data set with Hepatitis C virus, 18 µM. In addition, the result with Vaccinia virus, in the data set on Felid alphaherpesvirus 1, in the data set with Punta Toro virus, in the data set on Influenza A virus H3N2, in the data set with Influenza A virus and in the data set with Reovirus sp. was inactive. Besides, the result (in data set [3]; in the data set on Chikungunya virus; with Human respirovirus 3; with Coxsackievirus B4; in data set [6]; in the data set with Sindbis virus) was inactive. Further, the result in the data set with Feline coronavirus was inactive. In addition, in data set [4], the CC50 was 23 µM. In [7], the CC50 at 72 h is 29 µM. In the data set with Hepatitis C virus, the EC90 is greater than 29 µM.

For the origin of these results see ChEMBL document CHEMBL3407452, “Linear and branched alkyl-esters and amides of gallic acid and other (mono-, di- and tri-) hydroxy benzoyl derivatives as promising anti-HCV inhibitors” (Eur J Med Chem, 2015).
